Converted amounts (≈) assume the structure as drawn. Read-outs that look alike come from different tables or passages of the source. Marks after values point to notes of the source that are not given here.
Key:
[1] = test system: Pseudomonas aeruginosa ATCC 39324, mucoid type strain (R79); experiment: MIC assay, CAMHB with alginate oligomer, no visible growth; format: cell-based; conditions: R79
[2] = test system: Pseudomonas aeruginosa CFA 24-1, clinical mucoid strain (R80); experiment: as above; format: cell-based; conditions: R80
[3] = test system: Pseudomonas aeruginosa MDR R22 from China (V1); experiment: as above; format: cell-based; conditions: V1 MDR R22 PA
From the text: The study described in Example 1 was repeated with the following strains of bacteria and antibiotics as detailed in Tables 4, 5 and 6.

[4] = test system: Pseudomonas aeruginosa MDR 301 from Poland (V2); experiment: as above; format: cell-based; conditions: V2 MDR 301 PA
[5] = test system: V9 (Egypt) Acinetobacter baumannii; experiment: as above; format: cell-based; conditions: Table 5, V9 MDR Acin. baum
[6] = test system: V12 5725 (Wales) Klebsiella pneumoniae; experiment: as above; format: cell-based; conditions: Table 5, V12 MDR Kleb pneu
[7] = test system: V22 6056 Acinetobacter; experiment: as above; format: cell-based, Acinetobacter lwoffii; conditions: Table 5, V22 MDR Acin. lwoff
[8] = test system: strains of Klebsiella pneumoniae displaying MDR phenotypes; experiment: MIC-assay, Mueller-Hinton broth with G-block alginate, 384-well, OD600 (Table 10); format: cell-based
From the text: Minimum inhibitory concentration (MICs) of different antibiotics for strains of Klebsiella pneumoniae displaying MDR phenotypes in the presence of varying concentrations of OligoCF-5/20 (0-10%). (MIC values are expressed in μg ml^−1).

[9] = test system: MDR Providencia stuartii; experiment: MIC-assay, Mueller-Hinton broth with G-block alginate, 384-well, OD600 (Table 11); format: cell-based; conditions: Providencia stuartii (IR57 India, V7) MDR
From the text: (§1) Minimum inhibitory concentration (MICs) of different antibiotics for strains of E. coli and Providencia stuartii displaying MDR phenotypes in the presence of varying concentrations of OligoCF-5/20 (0-10%). (MIC values are expressed in μg ml^−1).

[10] = test system: strains of E. coli displaying MDR phenotypes; experiment: as above; format: cell-based; conditions: Escherichia coli, Escherichia coli (5702, Wales, V11) MDR, read-out: MIC
From the text: as §1

[11] = test system: Staphylococcus aureus (MRSA) U50; experiment: MIC-assay, Mueller-Hinton broth with G-block alginate, 384-well, OD600 (Table 12); format: cell-based; conditions: MRSA 1040s, U50 MDR
From the text: Minimum inhibitory concentration (MICs) of different antibiotics for strains of Streptococcus oralis and Staphylococcus aureus (MRSA) displaying MDR phenotypes in the presence of varying concentrations of OligoCF-5/20 (0-10%). (MIC values are expressed in μg ml^−1).

[12] = test system: Pseudomonas aeruginosa (R22, PSA, V1); experiment: MIC-assay, Mueller-Hinton broth with G-block alginate, 384-well, OD600
[13] = test system: Burkholderia cepacia (1322, V23); experiment: as above
[14] = test system: Burkholderia cepacia (LMG18941, ATCC-BAA-246); experiment: as above
[15] = test system: Acinetobacter baumannii (MDR ACB, Libya, V4); experiment: as above
[16] = Pseudomonas aeruginosa, Table 1, OligoCF-5/20 0G, read-out: MIC
[17] = Pseudomonas aeruginosa, Table 1, OligoCF-5/20 +2% G, read-out: MIC
[18] = Pseudomonas aeruginosa, Table 1, OligoCF-5/20 +6% G, read-out: MIC
[19] = Pseudomonas aeruginosa, Table 1, OligoCF-5/20 +10% G, read-out: MIC
[20] = Table 8, G-block (OligoCF-5/20) 2%
[21] = Table 8, G-block (OligoCF-5/20) 6%
[22] = Table 8, G-block (OligoCF-5/20) 10%

Compound `CC[C@H]1OC(=O)[C@H](C)[C@@H](O[C@H]2C[C@@](C)(OC)[C@@H](O)[C@H](C)O2)[C@H](C)[C@@H](O[C@@H]2O[C@H](C)C[C@H](N(C)C)[C@H]2O)[C@](C)(O)C[C@@H](C)CN(C)[C@H](C)[C@@H](O)[C@]1(C)O` [Azithromycin] has an MIC ([1]; Pseudomonas aeruginosa, ATCC39324, Table 1, OligoCF-5/20 0G, read-out: MIC) of 128 µg/mL (≈ 171 µM), an MIC ([1]; Pseudomonas aeruginosa, ATCC39324, Table 1, OligoCF-5/20 +2% G, read-out: MIC) of 64 µg/mL (≈ 85.4 µM) and an MIC ([1]; Pseudomonas aeruginosa, ATCC39324, Table 1, OligoCF-5/20 +6% G, read-out: MIC) of 16 µg/mL (≈ 21.4 µM). For the same compound, the MIC ([1]; Pseudomonas aeruginosa, ATCC39324, Table 1, OligoCF-5/20 +10% G, read-out: MIC) was 4 µg/mL (≈ 5.34 µM), the MIC ([1]; Table 2, OligoCF-5/20 0G) was 128^† and the MIC ([1]; Table 2, OligoCF-5/20 +2% G) was 64^†. The MIC ([1]; Table 2, OligoCF-5/20 +6% G) was 16^†, the MIC ([1]; Table 2, OligoCF-5/20 +10% G) was 4^† and the MIC [2, 16] was 256 µg/mL (≈ 342 µM). The MIC [2, 17] was 128 µg/mL (≈ 171 µM), the MIC [2, 18] was 64 µg/mL (≈ 85.4 µM) and the MIC [2, 19] was 8 µg/mL (≈ 10.7 µM). For the same compound, the MIC ([2]; Table 2, OligoCF-5/20 0G) was 256^†, the MIC ([2]; Table 2, OligoCF-5/20 +2% G) was 128^† and the MIC ([2]; Table 2, OligoCF-5/20 +6% G) was 64^†. The MIC ([2]; Table 2, OligoCF-5/20 +10% G) was 8^†, the MIC [3, 16] was 64 µg/mL (≈ 85.4 µM) and the MIC [3, 17] was 64 µg/mL (≈ 85.4 µM). The MIC [3, 18] was 64 µg/mL (≈ 85.4 µM), the MIC [3, 19] was 32 µg/mL (≈ 42.7 µM) and the MIC ([3]; Table 2, OligoCF-5/20 0G) was 64^†. The MIC ([3]; Table 2, OligoCF-5/20 +2% G) was 64 µg/mL (≈ 85.4 µM), the MIC ([3]; Table 2, OligoCF-5/20 +6% G) was 64 µg/mL (≈ 85.4 µM) and the MIC ([3]; Table 2, OligoCF-5/20 +10% G) was 32^†. The MIC [4, 16] was 64 µg/mL (≈ 85.4 µM), the MIC [4, 17] was 64 µg/mL (≈ 85.4 µM) and the MIC [4, 18] was 32 µg/mL (≈ 42.7 µM). For the same compound, the MIC [4, 19] was 16 µg/mL (≈ 21.4 µM), the MIC ([4]; Table 2, OligoCF-5/20 0G) was 64^† and the MIC ([4]; Table 2, OligoCF-5/20 +2% G) was 64 µg/mL (≈ 85.4 µM). The MIC ([4]; Table 2, OligoCF-5/20 +6% G) was 32^†, the MIC ([4]; Table 2, OligoCF-5/20 +10% G) was 16^† and the MIC ([5]; Acinetobacter baumannii, OligoCF-5/20 0G, read-out: MIC) was 16 µg/mL (≈ 21.4 µM). The MIC ([5]; OligoCF-5/20 +2% G) was 4^† μg/ml, the MIC ([5]; OligoCF-5/20 +6% G) was 0.5^† μg/ml and the MIC ([5]; OligoCF-5/20 +10% G) was under 0.25 µg/mL. It also gave an MIC ([6]; Klebsiella pneumoniae, OligoCF-5/20 0G, read-out: MIC) of 32 µg/mL (≈ 42.7 µM), an MIC ([6]; OligoCF-5/20 +2% G) of 8 µg/mL (≈ 10.7 µM) and an MIC ([6]; OligoCF-5/20 +6% G) of 32 µg/mL (≈ 42.7 µM). The MIC ([6]; OligoCF-5/20 +10% G) was 32 µg/mL (≈ 42.7 µM), the MIC ([7]; Acinetobacter, OligoCF-5/20 0G, read-out: MIC) was under 0.25 µg/mL and the MIC ([7]; OligoCF-5/20 +2% G) was under 0.25 µg/mL. For the same compound, the MIC ([7]; OligoCF-5/20 +6% G) was under 0.25 µg/mL, the MIC ([7]; OligoCF-5/20 +10% G) was under 0.25 µg/mL and the MIC ([8]; Klebsiella pneumoniae (5712, Wales, V12) MDR, G-block (OligoCF-5/20) 0%, read-out: MIC) was 16 µg/mL (≈ 21.4 µM). For the same compound, the MIC ([8]; Klebsiella pneumoniae (5712, Wales, V12) MDR, G-block (OligoCF-5/20) 2%, read-out: MIC) was 16 µg/mL (≈ 21.4 µM), the MIC ([8]; Klebsiella pneumoniae (5712, Wales, V12) MDR, G-block (OligoCF-5/20) 6%, read-out: MIC) was 16 µg/mL (≈ 21.4 µM) and the MIC ([8]; Klebsiella pneumoniae (5712, Wales, V12) MDR, G-block (OligoCF-5/20) 10%, read-out: MIC) was 16 µg/mL (≈ 21.4 µM). For the same compound, the MIC ([8]; Klebsiella pneumoniae (IR25, India, V6) MDR, G-block (OligoCF-5/20) 0%) was 128 µg/mL (≈ 171 µM), the MIC ([8]; Klebsiella pneumoniae (IR25, India, V6) MDR, G-block (OligoCF-5/20) 2%, read-out: MIC) was 64 µg/mL (≈ 85.4 µM) and the MIC ([8]; Klebsiella pneumoniae (IR25, India, V6) MDR, G-block (OligoCF-5/20) 6%, read-out: MIC) was 32 µg/mL (≈ 42.7 µM). For the same compound, the MIC ([8]; Klebsiella pneumoniae (IR25, India, V6) MDR, G-block (OligoCF-5/20) 10%, read-out: MIC) was 16 µg/mL (≈ 21.4 µM), the MIC ([8]; Klebsiella pneumoniae (K3, India, V8) MDR, G-block (OligoCF-5/20) 0%, read-out: MIC) was 16 µg/mL (≈ 21.4 µM) and the MIC ([8]; Klebsiella pneumoniae (K3, India, V8) MDR, G-block (OligoCF-5/20) 2%, read-out: MIC) was 8 µg/mL (≈ 10.7 µM). For the same compound, the MIC ([8]; Klebsiella pneumoniae (K3, India, V8) MDR, G-block (OligoCF-5/20) 6%, read-out: MIC) was 16 µg/mL (≈ 21.4 µM), the MIC ([8]; Klebsiella pneumoniae (K3, India, V8) MDR, G-block (OligoCF-5/20) 10%, read-out: MIC) was 16 µg/mL (≈ 21.4 µM) and the MIC ([9]; G-block (OligoCF-5/20) 0%) was under 2 µg/mL. It also gave an MIC ([9]; G-block (OligoCF-5/20) 2%) of under 2 µg/mL, an MIC ([9]; G-block (OligoCF-5/20) 6%) of under 2 µg/mL and an MIC ([9]; G-block (OligoCF-5/20) 10%) of under 2 µg/mL. The MIC ([10]; G-block (OligoCF-5/20) 0%) was 16 µg/mL (≈ 21.4 µM), the MIC ([10]; G-block (OligoCF-5/20) 2%) was 16 µg/mL (≈ 21.4 µM) and the MIC ([10]; G-block (OligoCF-5/20) 6%) was 8 µg/mL (≈ 10.7 µM). The MIC ([10]; G-block (OligoCF-5/20) 10%) was 16 µg/mL (≈ 21.4 µM), the MIC ([11]; G-block (OligoCF-5/20) 0%) was 512 µg/mL (≈ 684 µM) and the MIC ([11]; G-block (OligoCF-5/20) 2%) was 256 µg/mL (≈ 342 µM). For the same compound, the MIC ([11]; G-block (OligoCF-5/20) 6%) was 256 µg/mL (≈ 342 µM), the MIC ([11]; G-block (OligoCF-5/20) 10%) was 256 µg/mL (≈ 342 µM) and the MIC [12, 20] was 32 µg/mL (≈ 42.7 µM). For the same compound, the MIC [12, 21] was 32 µg/mL (≈ 42.7 µM), the MIC [12, 22] was 8 µg/mL (≈ 10.7 µM) and the MIC ([13]; Table 8, G-block (OligoCF-5/20) 0%) was 64 µg/mL (≈ 85.4 µM). For the same compound, the MIC [13, 20] was 32 µg/mL (≈ 42.7 µM), the MIC [13, 21] was 32 µg/mL (≈ 42.7 µM) and the MIC [13, 22] was 8 µg/mL (≈ 10.7 µM). The MIC ([14]; ATCCBAA246|LMG18941, Table 8, G-block (OligoCF-5/20) 0%) was 64 µg/mL (≈ 85.4 µM), the MIC ([14]; ATCCBAA246|LMG18941, Table 8, G-block (OligoCF-5/20) 2%) was 32 µg/mL (≈ 42.7 µM) and the MIC ([14]; ATCCBAA246|LMG18941, Table 8, G-block (OligoCF-5/20) 6%) was 16 µg/mL (≈ 21.4 µM). It also gave an MIC ([14]; ATCCBAA246|LMG18941, Table 8, G-block (OligoCF-5/20) 10%) of 16 µg/mL (≈ 21.4 µM), an MIC ([15]; Table 9, G-block (OligoCF-5/20) 0%) of 16 µg/mL (≈ 21.4 µM) and an MIC ([15]; Table 9, G-block (OligoCF-5/20) 2%) of 2 µg/mL (≈ 2.67 µM). For the same compound, the MIC ([15]; Table 9, G-block (OligoCF-5/20) 6%) was under 1 µg/mL and the MIC ([15]; Table 9, G-block (OligoCF-5/20) 10%) was under 1 µg/mL.

— US9801901B2, “Alginate oligomers for use in overcoming multidrug resistance in bacteria” (priority 2009, dated 2017)
